The test system of assay [1] is B. subtilis 168. In words: fitness (endpoint OD595 vs no drug) (fraction); higher = more growth. In short, it runs like this:
(§1)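 Plates with 384 wells were inoculated at OD595 0.01 using 30 µl of TSB, LB Lennox or CY, or 55 µl for S. pneumoniae. Incubation was at 37 °C, with OD595 measured every 30 min for 14 h. Fitness is the stationary-phase transition optical density over the robust mean of no-drug control wells, after first-reading background subtraction; it is capped at 1.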

Assay [2] relates to S. aureus Newman. The description is as above. In short, it runs like this:
as §1

For the next assay, the system named is S. pneumoniae D39V. The description is as above. The method, boiled down:
as §1

Assay [3] has as its system B. subtilis 168. Description: Bliss interaction score (quartile over a dose matrix) (fitness difference); higher = more antagonism (negative = synergy). In short, it runs like this:
(§2)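 Fitness was OD595 at entry into stationary phase divided by the plate's robust no-drug mean and capped at 1; single-drug fitness was inferred from combination data. The Bliss score is observed minus expected (product) fitness, summarised by quartiles over technical, biological and donor/recipient replicates.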

Another assay relates to S. aureus DSM 20231. The description is as above. The method, boiled down:
as §2

Assay [4] relates to S. aureus Newman. The assay is described as above. The method, boiled down: as §2
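Wherever Bliss interaction score (quartile over a dose matrix) is given: first quartile when negative (synergy) and third quartile when positive (antagonism).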

Regarding `O=C(O)c1cn(C2CC2)c2cc(N3CCNCC3)c(F)cc2c1=O` [Ciprofloxacin] + Cc1onc(-c2ccccc2)c1C(=O)N[C@@H]1C(=O)N2[C@@H]1SC(C)(C)[C@@H]2C(=O)O [Oxacillin], the fitness turned out to be 0.894 in the assay with B. subtilis 168 [1] (first compound 0.0098 µg/mL, partner 0.002 µg/mL); 0.866 with B. subtilis 168 [1] (first compound 0.0098 µg/mL, partner 0.004 µg/mL); 0.976 in the assay with B. subtilis 168 [1] (first compound 0.0098 µg/mL, partner 0.0078 µg/mL, one replicate); 0.863 in the assay on B. subtilis 168 [1] (first compound 0.0098 µg/mL, partner 0.008 µg/mL); 0.905 with B. subtilis 168 [1] (first compound 0.0098 µg/mL, partner 0.0155 µg/mL, one replicate); 0.965 with B. subtilis 168 [1] (first compound 0.0098 µg/mL, partner 0.031 µg/mL, one replicate). In addition, the fitness is 0.375 in the assay on B. subtilis 168 [1] (first compound 0.0098 µg/mL, partner 0.075 µg/mL, one replicate); 0.748 with B. subtilis 168 [1] (first compound 0.0195 µg/mL, partner 0.002 µg/mL); 0.693 in the assay with B. subtilis 168 [1] (first compound 0.0195 µg/mL, partner 0.004 µg/mL); 0.814 in the assay on B. subtilis 168 [1] (first compound 0.0195 µg/mL, partner 0.0078 µg/mL, one replicate); 0.61 in the assay on B. subtilis 168 [1] (first compound 0.0195 µg/mL, partner 0.008 µg/mL); 0.779 in the assay on B. subtilis 168 [1] (first compound 0.0195 µg/mL, partner 0.0155 µg/mL, one replicate). Further, the fitness in the assay on B. subtilis 168 [1] (first compound 0.0195 µg/mL, partner 0.031 µg/mL, one replicate) stood at 0.729; in the assay with B. subtilis 168 [1] (first compound 0.0195 µg/mL, partner 0.075 µg/mL, one replicate), 0.0252; in the assay with B. subtilis 168 [1] (first compound 0.0195 µg/mL, partner 0.15 µg/mL, one replicate), 0.0469; with B. subtilis 168 [1] (first compound 0.0195 µg/mL, partner 0.3 µg/mL, one replicate), 0.0517; with B. subtilis 168 [1] (first compound 0.039 µg/mL, partner 0.002 µg/mL), 0.0478; in the assay on B. subtilis 168 [1] (first compound 0.039 µg/mL, partner 0.004 µg/mL) it was 0.0457. For the same molecule, the fitness amounted to 0.136 in the assay on B. subtilis 168 [1] (first compound 0.039 µg/mL, partner 0.0078 µg/mL, one replicate); 0.054 in the assay on B. subtilis 168 [1] (first compound 0.039 µg/mL, partner 0.008 µg/mL); 0.191 in the assay on B. subtilis 168 [1] (first compound 0.039 µg/mL, partner 0.0155 µg/mL, one replicate); 0.0978 with B. subtilis 168 [1] (first compound 0.039 µg/mL, partner 0.031 µg/mL, one replicate); 0.0437 in the assay with B. subtilis 168 [1] (first compound 0.039 µg/mL, partner 0.075 µg/mL, one replicate); 0.0478 in the assay with B. subtilis 168 [1] (first compound 0.039 µg/mL, partner 0.15 µg/mL, one replicate). The fitness stood at 0.0488 in the assay on B. subtilis 168 [1] (first compound 0.039 µg/mL, partner 0.3 µg/mL, one replicate); 0.622 in the assay with S. aureus Newman [2] (first compound 0.0375 µg/mL, partner 0.0156 µg/mL); 0.612 with S. aureus Newman [2] (first compound 0.0375 µg/mL, partner 0.0312 µg/mL); 0.573 in the assay on S. aureus Newman [2] (first compound 0.0375 µg/mL, partner 0.0625 µg/mL); 0.635 in the assay on S. aureus Newman [2] (first compound 0.075 µg/mL, partner 0.0156 µg/mL); 0.618 in the assay on S. aureus Newman [2] (first compound 0.075 µg/mL, partner 0.0312 µg/mL). Also, the fitness in the assay on S. aureus Newman [2] (first compound 0.075 µg/mL, partner 0.0625 µg/mL) was found to be 0.494; with S. aureus Newman [2] (first compound 0.15 µg/mL, partner 0.0156 µg/mL) it was 0.0645; in the assay with S. aureus Newman [2] (first compound 0.15 µg/mL, partner 0.0312 µg/mL), 0.0732; in the assay on S. aureus Newman [2] (first compound 0.15 µg/mL, partner 0.0625 µg/mL), 0.0443; in the assay on S. pneumoniae D39V (first compound 0.125 µg/mL, partner 0.005 µg/mL), 0.987; in the assay with S. pneumoniae D39V (first compound 0.125 µg/mL, partner 0.01 µg/mL) it was 0.969. In addition, the fitness in the assay on S. pneumoniae D39V (first compound 0.125 µg/mL, partner 0.02 µg/mL) was determined as 0.915; in the assay on S. pneumoniae D39V (first compound 0.125 µg/mL, partner 0.04 µg/mL), 0.535; in the assay on S. pneumoniae D39V (first compound 0.25 µg/mL, partner 0.005 µg/mL, one replicate), 0.989; in the assay with S. pneumoniae D39V (first compound 0.25 µg/mL, partner 0.01 µg/mL), 0.934; with S. pneumoniae D39V (first compound 0.25 µg/mL, partner 0.02 µg/mL) it was 0.844; with S. pneumoniae D39V (first compound 0.25 µg/mL, partner 0.04 µg/mL) it was 0.424. Moreover, the fitness in the assay on S. pneumoniae D39V (first compound 0.5 µg/mL, partner 0.005 µg/mL) came to 0.815; in the assay with S. pneumoniae D39V (first compound 0.5 µg/mL, partner 0.04 µg/mL) it was 0.354. Further, the Bliss interaction score with B. subtilis 168 [3] was -0.0871; in the assay with S. aureus DSM 20231, 0.0341; with S. aureus Newman [4] it was 0.0816.
`CN(C)[C@@H]1C(O)=C(C(N)=O)C(=O)[C@@]2(O)C(O)=C3C(=O)c4c(O)ccc(Cl)c4[C@@](C)(O)[C@H]3C[C@@H]12` [Clortetracycline] + CC(=O)Oc1cccc2c1C(=O)c1c(OC(C)=O)cc(C(=O)O)cc1C2=O [Diacerein]: the Bliss interaction score with S. aureus DSM 20231 is -0.344.
Take `CN(C)[C@@H]1C(O)=C(C(N)=O)C(=O)[C@@]2(O)C(O)=C3C(=O)c4c(O)ccc(Cl)c4[C@@](C)(O)[C@H]3C[C@@H]12` [Clortetracycline] + CC(=O)S[C@@H]1CC2=CC(=O)CC[C@]2(C)[C@H]2CC[C@@]3(C)[C@@H](CC[C@@]34CCC(=O)O4)[C@H]12 [Spironolactone]: the Bliss interaction score with S. aureus DSM 20231 was 0.196.
Take `CN(C)[C@@H]1C(O)=C(C(N)=O)C(=O)[C@@]2(O)C(O)=C3C(=O)c4c(O)ccc(Cl)c4[C@@](C)(O)[C@H]3C[C@@H]12` [Clortetracycline] + CCCc1nc2c(C)cc(-c3nc4ccccc4n3C)cc2n1Cc1ccc(-c2ccccc2C(=O)O)cc1 [Telmisartan]: in the assay with S. aureus DSM 20231, the Bliss interaction score was -0.261.
`CN(C)[C@@H]1C(O)=C(C(N)=O)C(=O)[C@@]2(O)C(O)=C3C(=O)c4c(O)ccc(Cl)c4[C@@](C)(O)[C@H]3C[C@@H]12` [Clortetracycline] + CC[C@H](c1ccc(O)cc1)[C@@H](CC)c1ccc(O)cc1 [Hexestrol]: the Bliss interaction score with S. aureus DSM 20231 is -0.204.
On the same count and under the same terms, as for `CN(C)[C@@H]1C(O)=C(C(N)=O)C(=O)[C@@]2(O)C(O)=C3C(=O)c4c(O)ccc(Cl)c4[C@@](C)(O)[C@H]3C[C@@H]12` [Clortetracycline] + COc1ccc(CCN(C)CCCC(C#N)(c2ccc(OC)c(OC)c2)C(C)C)cc1OC [Verapamil], the figure is 0.243.
As to `CN(C)[C@@H]1C(O)=C(C(N)=O)C(=O)[C@@]2(O)C(O)=C3C(=O)c4c(O)ccc(Cl)c4[C@@](C)(O)[C@H]3C[C@@H]12` [Clortetracycline] + C[C@]12CC[C@@H]3c4ccc(O)cc4CC[C@H]3[C@@H]1CC[C@@H]2O [Estradiol], the Bliss interaction score in the assay with S. aureus DSM 20231 was 0.237.
Consider `CN(C)[C@@H]1C(O)=C(C(N)=O)C(=O)[C@@]2(O)C(O)=C3C(=O)c4c(O)ccc(Cl)c4[C@@](C)(O)[C@H]3C[C@@H]12` [Clortetracycline] + Cc1c(C)c2c(c(C)c1O)CCC(C)(COc1ccc(CC3SC(=O)NC3=O)cc1)O2 [Troglitazone], for which, in the assay with S. aureus DSM 20231, the Bliss interaction score is -0.137.
The same measure, in the same setting: as for `CN(C)[C@@H]1C(O)=C(C(N)=O)C(=O)[C@@]2(O)C(O)=C3C(=O)c4c(O)ccc(Cl)c4[C@@](C)(O)[C@H]3C[C@@H]12` [Clortetracycline] + O=C(O)c1cc(-c2ccc(F)cc2F)ccc1O [Diflunisal], the figure is 0.232; as for `CN(C)[C@@H]1C(O)=C(C(N)=O)C(=O)[C@@]2(O)C(O)=C3C(=O)c4c(O)ccc(Cl)c4[C@@](C)(O)[C@H]3C[C@@H]12` [Clortetracycline] + OCc1cc(C(O)CNCCCCCCOCCCCc2ccccc2)ccc1O [Salmeterol], -0.118; as for `CC(=O)Oc1cccc2c1C(=O)c1c(OC(C)=O)cc(C(=O)O)cc1C2=O` [Diacerein] + CC(=O)NC[C@H]1CN(c2ccc(N3CCOCC3)c(F)c2)C(=O)O1 [Linezolid], -0.29.
With `CC(=O)Oc1cccc2c1C(=O)c1c(OC(C)=O)cc(C(=O)O)cc1C2=O` [Diacerein] + CN(C)C(=O)C(CCN1CCC(O)(c2ccc(Cl)cc2)CC1)(c1ccccc1)c1ccccc1 [Loperamide], the Bliss interaction score in the assay on S. aureus DSM 20231 was -0.474.
Take `CC(=O)Oc1cccc2c1C(=O)c1c(OC(C)=O)cc(C(=O)O)cc1C2=O` [Diacerein] + COc1cc(Cc2cnc(N)nc2N)cc(OC)c1OC [Trimethoprim]: the Bliss interaction score with S. aureus DSM 20231 is -0.243.
On the same count and under the same terms, the same measure for `CC(=O)Oc1cccc2c1C(=O)c1c(OC(C)=O)cc(C(=O)O)cc1C2=O` [Diacerein] + C[C@H]1COc2c(N3CCN(C)CC3)c(F)cc3c(=O)c(C(=O)O)cn1c23 [Levofloxacin]: -0.237; for `O=C(O)c1cc(-c2ccc(F)cc2F)ccc1O` [Diflunisal] + CC(=O)O[C@H]1C[C@@]2(C)[C@@H](C[C@@H](O)[C@H]3[C@@]4(C)CC[C@@H](O)[C@@H](C)[C@@H]4CC[C@@]32C)/C1=C(\CCC=C(C)C)C(=O)O [Fusidic acid]: 0.199; for `O=C(O)c1cc(-c2ccc(F)cc2F)ccc1O` [Diflunisal] + CN(C)C(=O)C(CCN1CCC(O)(c2ccc(Cl)cc2)CC1)(c1ccccc1)c1ccccc1 [Loperamide]: 0.356.
For `COc1cccc2c1C(=O)c1c(O)c3c(c(O)c1C2=O)C[C@@](O)(C(=O)CO)C[C@@H]3O[C@H]1C[C@H](N)[C@H](O)[C@H](C)O1` [Doxorubicin] + CCCSc1nc(N[C@@H]2C[C@H]2c2ccc(F)c(F)c2)c2nnn([C@@H]3C[C@H](OCCO)[C@@H](O)[C@H]3O)c2n1 [Ticagrelor], the Bliss interaction score in the assay with S. aureus DSM 20231 was -0.298.
Same read-out and setting: as for `C[C@H]1c2cccc(O)c2C(=O)C2=C(O)[C@]3(O)C(=O)C(C(N)=O)=C(O)[C@@H](N(C)C)[C@@H]3[C@@H](O)[C@@H]21` [Doxycycline] + CC(=O)S[C@@H]1CC2=CC(=O)CC[C@]2(C)[C@H]2CC[C@@]3(C)[C@@H](CC[C@@]34CCC(=O)O4)[C@H]12 [Spironolactone], the figure is 0.239.
Turning to `C[C@H]1c2cccc(O)c2C(=O)C2=C(O)[C@]3(O)C(=O)C(C(N)=O)=C(O)[C@@H](N(C)C)[C@@H]3[C@@H](O)[C@@H]21` [Doxycycline] + CCCSc1nc(N[C@@H]2C[C@H]2c2ccc(F)c(F)c2)c2nnn([C@@H]3C[C@H](OCCO)[C@@H](O)[C@H]3O)c2n1 [Ticagrelor], the Bliss interaction score with S. aureus DSM 20231 is -0.272.
Same read-out and setting: as for `Cc1ncc([N+](=O)[O-])n1CCO` [Metronidazole] + CCCSc1nc(N[C@@H]2C[C@H]2c2ccc(F)c(F)c2)c2nnn([C@@H]3C[C@H](OCCO)[C@@H](O)[C@H]3O)c2n1 [Ticagrelor], the figure is 0.152; as for `Cc1cc(C(C)(C)C)c(O)c(C)c1CC1=NCCN1` [Oxymetazoline] + COc1cc(Cc2cnc(N)nc2N)cc(OC)c1OC [Trimethoprim], 0.209.

The values are drawn from the supplement of paper PMC10627819.
